Like-named read-outs stand apart in the source and are kept apart here.
Experiments:
[1] = molecular target: T1, sodium iodide symporter (NIS), iodide uptake in FRTL5 cells (Rattus norvegicus, UniProt Q63008); assay: Inhibition of iodide uptake in FRTL5 cells, non radioactive arsenic/cerium assay; format: cell-based
T1 construct: endogenous in cells; host or cells: FRTL5 (rat thyroid-derived cells)
T1 sequence (Q63008 1-618): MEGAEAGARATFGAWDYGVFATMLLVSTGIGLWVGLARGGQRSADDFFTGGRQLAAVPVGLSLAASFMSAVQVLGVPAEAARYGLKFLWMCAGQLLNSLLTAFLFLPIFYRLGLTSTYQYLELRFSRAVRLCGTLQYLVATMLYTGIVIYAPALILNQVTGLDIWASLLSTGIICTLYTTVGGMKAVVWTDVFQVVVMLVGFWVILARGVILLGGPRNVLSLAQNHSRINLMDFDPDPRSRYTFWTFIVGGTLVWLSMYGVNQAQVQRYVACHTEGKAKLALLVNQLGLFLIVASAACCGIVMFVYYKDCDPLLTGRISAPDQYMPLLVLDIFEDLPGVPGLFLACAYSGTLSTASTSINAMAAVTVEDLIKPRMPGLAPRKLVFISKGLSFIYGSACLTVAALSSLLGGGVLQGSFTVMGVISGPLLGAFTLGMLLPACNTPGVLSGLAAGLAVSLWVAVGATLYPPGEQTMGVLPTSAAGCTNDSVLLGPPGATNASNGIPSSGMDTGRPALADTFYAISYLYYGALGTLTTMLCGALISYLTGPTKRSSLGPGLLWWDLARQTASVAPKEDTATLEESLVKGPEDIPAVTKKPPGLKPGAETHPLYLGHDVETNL
Protocol: Some of the synthesized compounds were evaluated for their ability to inhibit iodide entrapment in FRTL5 cells. The IC50 values were measured in at least […] independent experiments.
The biological activity of each compound was determined in FRTL5 cells, using a non radioactive arsenic/cerium assay as described in F. Waltz et al., Anal. Biochem., 2012, 396, 91-95. Compound potency was expressed as IC50, the concentration of compound necessary to achieve 50% inhibition of iodide uptake. Briefly, to FRTL5 cells at 70-90% confluence was added compound (200 μM, 10 μM, 0.5 μM, 25 nM, 1.2 nM, 60 pM, […], and 0.15 pM final), followed by NaI (10 μM final). After 1 hour incubation at 20±1° C., supernatant was removed and the cells were immediately assayed for iodide content using the modified As/Ce Sandell-Kolthoff reaction. NaClO4 was tested in each microplate as assay controls. The IC50 values of all compounds were measured least thrice independently.
Stock solutions of tested compounds were prepared in DMSO (20 mM) and that of NaClO4 in water (20 mM). These stock solutions were stored at 4° C. for up to 2 months. Sample dilutions: the day of the assay, a daughter plate (clear flat-bottomed 96-well polystyrene microplates, Costar 9017) was prepared from 20 mM stock solutions. NaClO4 (column 2) and DHPM samples (columns 4 to 11) were diluted at 10× the final concentration in uptake buffer.
FRTL5 cells were cultured as described in F. S. Ambesi-Impiombato et al., Proc. Natl. Acad. Sci. USA, 1980, 77, 3455-3459. Briefly, FRTL5 cells were cultured in Coon's modified F12 medium supplemented with 5% heat-inactivated fetal bovine serum (Invitrogen), 2 mM L-glutamine, 100 U/mL penicillin, 0.1 mg/mL streptomycin, 10 μg/mL insulin, 10 nM hydrocortisone, 10 ng/mL Gly-His-Lys acetate, 1 mU/mL TSH, 5 μg/mL transferrin at 37° C. and 5% CO2. For iodide uptake assays, 200 μL of FRTL5 cells with density of 250,000 cells/mL were dispensed in each well of clear flat-bottomed 96-well polystyrene microplates (Costar 3628) using the Multidrop 384 (ThermoFisher Scientific), and further cultured until confluence reached 80-90% (3-4 days).
The culture medium of FRTL5 monolayer cells at 80-90% confluence was replaced by uptake buffer (20° C.) via continuous aspiration/dispense cycle (600 μL) using a 96-needle head plate washer PW 384 (Tecan). The 96-needle head was set to a vertical position such that 80 μL of fresh uptake buffer remained in each well at the end of the cycle. The samples (10 μL each) from the daughter plate were transferred all at once to the assay plate using the 96-tip head pipettor Liquidator 96 (Mettler Toledo). Immediately after, 10 μL of a NaI solution at 100 μM was added to each well of the assay plate using the Liquidator 96. The assay plate was left to stand in the dark at 20±1° C. for 60 min. The assay plate was then washed with cold (4° C.) uptake buffer using the PW 384 plate washer and residual supernatant was immediately discarded by inverting the assay plate on absorbent paper.
Sodium iodide standards (S1 to S7) and water (S0) were distributed in duplicate (100 μL each) in the first and last column of the assay plate. Water (100 μL) was added to the columns with the Multidrop 384. 100 μL of the ammonium cerium (IV) sulfate solution (10.5 mM) was distributed into the columns, followed by 100 μL of the sodium arsenite (III) solution (24 mM) using the Multidrop 384. The assay plate was left to stand at 20±1° C. for 30 min. The absorbance at 420 nm (Abs420) was immediately recorded on a SpectraMax Plus 384 (Molecular Devices). A calibration curve was prepared for each plate by plotting the logarithmic conversion of the means of Abs420 (n=2) vs iodide standard concentrations (S0 to S7). The iodide concentrations in the samples were determined after linear regression of the calibration curve.

[2] = Table 2, variations at R5, averaged from three or four independent experiments, NaI 10 μM, 1 hour, 20°C, read-out: IC50 (μM), inhibitory activity against iodide uptake in FRTL5 cells
[3] = Table 4, variations at X, R3, R4, averaged from three or four independent experiments, NaI 10 μM, 1 hour, 20°C, read-out: IC50 (μM), inhibitory activity against iodide uptake in FRTL5 cells
[4] = Table 1, variations at R1, averaged from three or four independent experiments, NaI 10 μM, 1 hour, 20°C, read-out: IC50 (μM), inhibitory activity against iodide uptake in FRTL5 cells
[5] = Table 5, variations at Y, R1, R3, R4, R5, averaged from two to four independent experiments, NaI 10 μM, 1 hour, 20°C, read-out: IC50 (μM), inhibitory activity against iodide uptake in FRTL5 cells
[6] = Table 3, variations at R2, averaged from three or four independent experiments, NaI 10 μM, 1 hour, 20°C, read-out: IC50 (μM), inhibitory activity against iodide uptake in FRTL5 cells

## COc1cccc(COC(=O)C2=C(C)NC(=O)NC2c2ccccc2)c1 (centres unmarked) [Compound 37, 3-Methoxybenzyl 6-methyl-2-oxo-4-phenyl-1,2,3,4-tetrahydropyrimidine-5-carboxylate]
[1]; [2]
  IC50: 50 nM

## COc1ccc(COC(=O)C2=C(C)N(C)C(=O)NC2c2ccccc2)cc1 (centres unmarked) [Compound 50, 4-Methoxybenzyl 1,6-dimethyl-2-oxo-4-phenyl-1,2,3,4-tetrahydropyrimidine-5-carboxylate]
[1]; [3]
  IC50: 75 nM
other
  melting point: 134 to 136 °C

## COc1ccc(COC(=O)C2=C(C)NC(=O)NC2c2ccsc2)cc1 (centres unmarked) [Compound 31, 4-Methoxybenzyl 6-methyl-2-oxo-4-(thiophen-3-yl)-1,2,3,4-tetrahydropyrimidine-5-carboxylate]
[1]; [4]
  IC50: 40 nM
other
  melting point: 156 to 158 °C

## COc1ccc(COC(=O)C2=C(C)NC(=O)NC2c2cccc(Br)c2)cc1 (centres unmarked) [Compound 21, 4-Methoxybenzyl 4-(3-bromophenyl)-6-methyl-2-oxo-1,2,3,4-tetrahydropyrimidine-5-carboxylate]
[1]; [4]
  IC50: 350 nM
other
  melting point: 164 to 166 °C

## COc1ccc(COC(=O)C2=C(C)N(C)C(=O)N(C)C2c2ccco2)cc1 (centres unmarked) [Compound 54, 4-methoxybenzyl 4-(furan-2-yl)-1,3,6-trimethyl-2-oxo-1,2,3,4-tetrahydropyrimidine-5-carboxylate]
[1]; [5]
  IC50: 1.6 nM

## COc1ccc(COC(=O)C2=C(C)NC(=O)NC2c2cccs2)cc1 (centres unmarked) [Compound 30, 4-Methoxybenzyl 4-(thiophen-2-yl)-6-methyl-2-oxo-1,2,3,4-tetrahydropyrimidine-5-carboxylate]
[1]; [4]
  IC50: 50 nM
other
  melting point: 152 to 154 °C

## CC1=C(C(=O)OCc2ccc3c(c2)OCO3)C(c2ccco2)N(C)C(=O)N1C (centres unmarked) [Compound 61, benzo[d][1,3]dioxol-5-ylmethyl 4-(furan-2-yl)-1,3,6-trimethyl-2-oxo-1,2,3,4-tetrahydropyrimidine-5-carboxylate]
[1]; [5]
  IC50: 0.85 nM

## COc1ccc(COC(=O)C2=C(CC(C)C)NC(=O)NC2c2ccccc2)cc1 (centres unmarked) [Compound 41, 4-Methoxybenzyl 2-oxo-6-isobutyl-4-phenyl-1,2,3,4-tetrahydropyrimidine-5-carboxylate]
[1]; [6]
  IC50: 550 nM

## CC1=C(C(=O)OCc2ccc(F)cc2)C(c2ccccc2)NC(=O)N1 (centres unmarked) [Compound 35, 4-Fluorobenzyl 6-methyl-2-oxo-4-phenyl-1,2,3,4-tetrahydropyrimidine-5-carboxylate]
[1]; [2]
  IC50: 200 nM
other
  melting point: 196 to 197 °C

## COc1ccc(COC(=O)C2=C(C)NC(=O)NC2c2ccc(F)cc2)cc1 (centres unmarked) [Compound 25, 4-Methoxybenzyl 4-(4-fluorophenyl)-6-methyl-2-oxo-1,2,3,4-tetrahydropyrimidine-5-carboxylate]
[1]; [4]
  IC50: 150 nM
other
  melting point: 172 to 175 °C

## CC1=C(C(=O)NCc2ccc3c(c2)OCO3)C(c2ccccc2)NC(=O)N1 (centres unmarked) [Compound 63, N-(benzo[d][1,3]dioxol-5-ylmethyl) 6-methyl-2-oxo-4-phenyl-1,2,3,4-tetrahydropyrimidine-5-carboxamide]
[1]; [5]
  IC50: 78 nM
other
  melting point: 235 to 237 °C

## COc1cccc(COC(=O)C2=C(C)NC(=O)NC2c2ccco2)c1 (centres unmarked) [Compound 55, 3-methoxybenzyl 4-(furan-2-yl)-6-methyl-2-oxo-1,2,3,4-tetrahydropyrimidine-5-carboxylate]
[1]; [5]
  IC50: 0.57 nM
other
  melting point: 165 to 166 °C

## COc1ccc(COC(=O)C2=C(c3ccccc3)NC(=O)NC2c2ccccc2)cc1 (centres unmarked) [Compound 44, 4-Methoxybenzyl 4,6-diphenyl-2-oxo-1,2,3,4-tetrahydropyrimidine-5-carboxylate]
[1]; [6]
  IC50: 950 nM

## COc1ccc(COC(=O)C2=C(COc3ccccc3)NC(=O)NC2c2ccccc2)cc1 (centres unmarked) [Compound 46, 4-Methoxybenzyl 2-oxo-6-phenoxymethyl-4-phenyl-1,2,3,4-tetrahydropyrimidine-5-carboxylate]
[1]; [6]
  IC50: 500 nM

## CCCCCC1=C(C(=O)OCc2ccc(OC)cc2)C(c2ccccc2)NC(=O)N1 (centres unmarked) [Compound 42, 4-Methoxybenzyl 2-oxo-6-pentyl-4-phenyl-1,2,3,4-tetrahydropyrimidine-5-carboxylate]
[1]; [6]
  IC50: 350 nM

## COc1cccc(COC(=O)C2=C(C)N(C)C(=O)N(C)C2c2ccco2)c1 (centres unmarked) [Compound 57, 3-methoxybenzyl 4-(furan-2-yl)-1,3,6-trimethyl-2-oxo-1,2,3,4-tetrahydropyrimidine-5-carboxylate]
[1]; [5]
  IC50: 0.065 nM

## COc1ccc(COC(=O)C2=C(Cc3cccs3)NC(=O)NC2c2ccccc2)cc1 (centres unmarked) [Compound 49, 4-Methoxybenzyl 2-oxo-4-phenyl-6-(thiophen-2-ylmethyl)-1,2,3,4-tetrahydropyrimidine-5-carboxylate]
[1]; [6]
  IC50: 150 nM

## CC1=C(C(=O)OCc2ccc3c(c2)OCO3)C(c2ccccc2)NC(=O)N1 (centres unmarked) [Compound 38, Benzo[d][1,3]dioxol-5-ylmethyl 6-methyl-2-oxo-4-phenyl-1,2,3,4-tetrahydropyrimidine-5-carboxylate]
[1]; [2]
  IC50: 80 nM

## [O-][Cl+3]([O-])([O-])O [Sodium perchlorate, reference compound]
[1]; assay control, read-out: IC50, iodide entrapment in FRTL5 cells, assay control
  IC50: 100 nM

## COc1ccc(COC(=O)C2=C(C)N(C)C(=O)N(C)C2c2ccccc2)cc1 (centres unmarked) [Compound 51, 4-Methoxybenzyl 1,3,6-trimethyl-2-oxo-4-phenyl-1,2,3,4-tetrahydropyrimidine-5-carboxylate]
[1]; [3]
  IC50: 65 nM

## COc1ccc(COC(=O)C2=C(C3CCCCC3)NC(=O)NC2c2ccccc2)cc1 (centres unmarked) [Compound 43, 4-Methoxybenzyl 6-cyclohexyl-2-oxo-4-phenyl-1,2,3,4-tetrahydropyrimidine-5-carboxylate]
[1]; [6]
  IC50: 850 nM
